In general, IC50 refers to the concentration at which inhibition is half-maximal.

The target in this assay is T1, ligand binding domain of human RORγ (A262-S507) (Homo sapiens, UniProt P51449).
T1 construct: made in house; host or cells: E. coli
T1 sequence (P51449 262-507): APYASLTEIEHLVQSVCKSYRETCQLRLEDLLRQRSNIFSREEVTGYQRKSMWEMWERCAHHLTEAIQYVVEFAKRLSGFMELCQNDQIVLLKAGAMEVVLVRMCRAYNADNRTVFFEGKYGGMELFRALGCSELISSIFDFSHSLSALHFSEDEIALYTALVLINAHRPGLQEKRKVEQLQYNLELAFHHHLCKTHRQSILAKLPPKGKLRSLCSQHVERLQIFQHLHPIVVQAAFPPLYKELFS
Briefly: General RORγ SPA binding assay (competition with [3H]25-hydroxycholesterol). Particulars: RORγ SPA binding assay, inhibition of [3H]25-hydroxycholesterol binding; read-out: IC50. As to the method: Example 2 General RORγ SPA Binding Assay
The binding of potential ligands to RORγ is measured by competition with [^3H]25-hydroxycholesterol using a scintillation proximity assay (SPA) binding assay. The ligand binding domain of human RORγ (A262-S507) with an N-terminal His tag is expressed in E. coli and purified using nickel affinity chromotography. 50 nM RORγ (A262-S507) is incubated with test compound at varying concentrations for 15 min at room temperature in PBS buffer containing 0.5% fatty acid free BSA. […] of [^3H]25-hydroxycholesterol is then added, and the reaction is incubated for 15 min. 4 mg/mL of Ysi Copper HIS-TAG SPA Beads (Perkin Elmer) are added, and the mixture is incubated for 30 min. The reaction is read on a MicroBeta Trilux scintillation plate reader (Perkin Elmer). IC50 values are determined from the percentage inhibition of [^3H]25-hydroxycholesterol binding.
Turning to `Cc1ncc(C(=NOc2cccc(F)c2)C(F)(F)F)c(C2CCN(C(=O)Cc3c(F)cccc3F)CC2)n1` (mixture of isomers) [Compound B29, (Z)-2-(2,6-Difluorophenyl)-1-(4-(2-methyl-5-(2,2,2-trifluoro-1-(3-fluorophenoxyimino)ethyl)pyrimidin-4-yl)piperidin-1-yl)ethanone], the IC50 worked out at 3720 nM.

Turning to `CSc1ncc(C(C)=NOc2ccnc(C(F)(F)F)c2)c(C2CCN(C(=O)Nc3c(F)cccc3F)CC2)n1` (mixture of isomers) [Compound B52, N-(2,6-Difluorophenyl)-4-{2-(methylthio)-5-[(1E)-N-{[2-(trifluoromethyl)pyridin-4-yl]oxy}ethanimidoyl]pyrimidin-4-yl}piperidine-1-carboxamide], the IC50 was 334 nM.

Turning to `Cc1cc(C)cc(COC(C)(COC[C@H](O)CO)c2cnc(C)nc2C2CCN(C(=O)Cc3c(F)cccc3F)CC2)c1` (mixture of isomers) [Compound E9, 2-(2,6-Difluorophenyl)-1-(4-(5-(1-((R)-2,3-dihydroxypropoxy)-2-(3,5-dimethylbenzyloxy)propan-2-yl)-2-methylpyrimidin-4-yl)piperidin-1-yl)ethanone], the IC50 worked out at 6.2 nM. As to `Cc1cc(C)cc(CC=Cc2cnc(C)nc2C2CCN(C(=O)Cc3c(F)cccc3F)CC2)c1` (mixture of isomers) [Compound J1, (E)-2-(2,6-Difluorophenyl)-1-(4-(5-(3-(3,5-dimethylphenyl)prop-1-enyl)-2-methylpyrimidin-4-yl)piperidin-1-yl)ethanone], the concentration for half-maximal inhibition (IC50) came out at 46 nM. Take `Cc1cc(C)cc(COC(C)(COC[C@H](O)CO)c2cnc(C)nc2C2CCN(C(=O)Cc3c(F)cccc3F)CC2)c1` (stereo in doubt) [Compound E8, 2-(2,6-Difluorophenyl)-1-(4-(5-(1-(2,3-dihydroxypropoxy)-2-(3,5-dimethylbenzyloxy)propan-2-yl)-2-methylpyrimidin-4-yl)piperidin-1-yl)ethanone]: the half-maximal inhibitory concentration (IC50) came to 4.1 nM.

For the molecule `Cc1cc(C)cc(CNC(=O)c2cnc(C)nc2C2CCN(C(=O)Cc3c(F)cccc3F)CC2)c1` [Compound A1], the IC50 was 4.7 nM. For the molecule `Cc1ncc(C(=O)NCc2ccc(Cl)c(Cl)c2)c(C2CCN(C(=O)Cc3c(F)cccc3F)CC2)n1` [Compound A2, N-(3,4-dichlorobenzyl)-4-(1-(2-(2,6-difluorophenyl)acetyl)piperidin-4-yl)-2-methylpyrimidine-5-carboxamide], the IC50 worked out at 6.8 nM. On to `Cc1cc(C)cc(CNC(=O)c2cnc(C)nc2C2CCN(C(=O)Cc3c(F)cccc3Cl)CC2)c1` [Compound A3, 4-(1-(2-(2-chloro-6-fluorophenyl)acetyl)piperidin-4-yl)-N-(3,5-dimethylbenzyl)-2-methylpyrimidine-5-carboxamide], for which the IC50 was determined as 7.2 nM. With `Cc1cc(C)cc(CNC(=O)c2cnc(C)nc2C2CCN(C(=O)Cc3c(F)cccc3C(F)(F)F)CC2)c1` [Compound A4, N-(3,5-dimethylbenzyl)-4-(1-(2-(2-fluoro-6-(trifluoromethyl)phenyl)acetyl)piperidin-4-yl)-2-methylpyrimidine-5-carboxamide] the figure was 7.8 nM; with `Cc1cc(C)cc(CNC(=O)c2cnc(C)nc2C2CCN(C(=O)Cc3ccccc3C(F)(F)F)CC2)c1` [Compound A5, N-(3,5-dimethylbenzyl)-2-methyl-4-(1-(2-(2-(trifluoromethyl)phenyl)acetyl)piperidin-4-yl)pyrimidine-5-carboxamide], 8.9 nM; with `O=C(NCc1ccc(Cl)c(Cl)c1)c1cncnc1C1CCN(C(=O)Cc2c(F)cccc2Cl)CC1` [Compound A6, 4-(1-(2-(2-chloro-6-fluorophenyl)acetyl)piperidin-4-yl)-N-(3,4-dichlorobenzyl)pyrimidine-5-carboxamide], 26.4 nM. Take `Cc1cc(C)cc(CNC(=O)c2cnc(C)nc2C2CCN(C(=O)Cc3ccccc3Cl)CC2)c1` [Compound A7, 4-(1-(2-(2-chlorophenyl)acetyl)piperidin-4-yl)-N-(3,5-dimethylbenzyl)-2-methylpyrimidine-5-carboxamide]: the IC50 stood at 28.1 nM. In the case of `Cc1cc(C)cc(CNC(=O)c2cnc(C)nc2C2CCN(C(=O)c3c(F)cccc3Cl)CC2)c1` [Compound A8, 4-(1-(2-chloro-6-fluorobenzoyl)piperidin-4-yl)-N-(3,5-dimethylbenzyl)-2-methylpyrimidine-5-carboxamide], the concentration for half-maximal inhibition (IC50) came to 29.4 nM. With `Cc1cc(C)cc(CNC(=O)c2cnc(C)nc2C2CCN(C(=O)Cc3ccccc3OC(F)(F)F)CC2)c1` [Compound A9, N-(3,5-dimethylbenzyl)-2-methyl-4-(1-(2-(2-(trifluoromethoxy)phenyl)acetyl)piperidin-4-yl)pyrimidine-5-carboxamide] the figure was 31.6 nM; with `COc1ccccc1CC(=O)N1CCC(c2nc(C)ncc2C(=O)NCc2cc(C)cc(C)c2)CC1` [Compound A10, N-(3,5-dimethylbenzyl)-4-(1-(2-(2-methoxyphenyl)acetyl)piperidin-4-yl)-2-methylpyrimidine-5-carboxamide], 33.1 nM; with `Cc1cc(C)cc(CNC(=O)c2cnc(C)nc2C2CCN(C(=O)Cc3ccccc3C)CC2)c1` [Compound A11, N-(3,5-dimethylbenzyl)-2-methyl-4-(1-(2-(o-tolyl)acetyl)piperidin-4-yl)pyrimidine-5-carboxamide], 49 nM.

Regarding `Cc1cc(C)cc(CNC(=O)c2cnc(C)nc2C2CCN(C(=O)Cc3ccccc3F)CC2)c1` [Compound A12, N-(3,5-dimethylbenzyl)-4-(1-(2-(2-fluorophenyl)acetyl)piperidin-4-yl)-2-methylpyrimidine-5-carboxamide], the half-maximal inhibitory concentration (IC50) stood at 50 nM. Regarding `Cc1ncc(C(=O)NCc2ccc(Cl)c(Cl)c2)c(C2CCN(C(=O)Cc3c(F)ccc(F)c3F)CC2)n1` [Compound A13, N-(3,4-dichlorobenzyl)-2-methyl-4-(1-(2-(2,3,6-trifluorophenyl)acetyl)piperidin-4-yl)pyrimidine-5-carboxamide], the IC50 is 52 nM. On to `Cc1cc(C)cc(CNC(=O)c2cnc(C)nc2C2CCN(C(=O)Cc3cc(F)ccc3F)CC2)c1` [Compound A14, 4-(1-(2-(2,5-difluorophenyl)acetyl)piperidin-4-yl)-N-(3,5-dimethylbenzyl)-2-methylpyrimidine-5-carboxamide], for which the half-inhibitory concentration (IC50) is 66 nM. On to `Cc1cc(C)cc(CNC(=O)c2cnc(C)nc2C2CCN(C(=O)Cc3ccccc3[N+](=O)[O-])CC2)c1` [Compound A15, N-(3,5-dimethylbenzyl)-2-methyl-4-(1-(2-(2-nitrophenyl)acetyl)piperidin-4-yl)pyrimidine-5-carboxamide], for which the IC50 came out at 70 nM. As for `Cc1cc(C)cc(CNC(=O)c2cnc(C)nc2C2CCN(C(=O)[C@H](C)c3ccccc3)CC2)c1` [Compound A16, (R)-N-(3,5-dimethylbenzyl)-2-methyl-4-(1-(2-phenylpropanoyl)piperidin-4-yl)pyrimidine-5-carboxamide], the figure is 89 nM. With `Cc1cc(C)cc(CNC(=O)c2cnc(C)nc2C2CCN(C(=O)Cc3cccc(F)c3F)CC2)c1` [Compound A18, 4-(1-(2-(2,3-difluorophenyl)acetyl)piperidin-4-yl)-N-(3,5-dimethylbenzyl)-2-methylpyrimidine-5-carboxamide], the IC50 was 124 nM.

These data come from patent publication US10035790B2, “RORγ modulators” (BRISTOL-MYERS SQUIBB COMPANY, priority 2012, dated 2018).
